Source: patent publication US20240324627A1, “USE OF A FEED ADDITIVE IN LOW ENERGY FEED FOR PIGS” (Alzchem Trostberg GmbH, priority 2021, published 2024)

Experiments:
[1] = tested on: pigs; details: Weber et al. 2017, cited from earlier work
[2] = tested on: fattening pigs; experiment: 39-day feeding experiment in fattening pigs with low energy feed; format: in vivo
Text: In a 39-day feeding experiment, three different feed concepts were fed to fattening pigs with an initial weight of ˜65 kg. For each feeding concept, 80 pigs in 16 pens (5 animals per pen) were examined. The pens were exclusively occupied by animals of the same gender, i.e. females or non-castrated boars, in a 1:1 gender ratio. The three different feed groups were optimized for the content of metabolic energy (ME) and the other raw nutrients based on the supply recommendations of the NRC (National Research Council of the National Academies, 2012: Nutrient requirements of Swine/Committee on Nutrient Requirements of Swine, Board on Agriculture and Natural Resources, Division on Earth and Life Studies.-11th rev. ed. p. cm.). A positive control group with 13.0 MJ ME covering the energy requirements was compared with a negative control group with 12.8 MJ ME reduced by 0.2 MJ. In a guanidinoacetic acid group supplemented with 600 g/t, an energy content of 12.7 MJ ME was adjusted. The fattening phase lasted 39 days. On day 40, the animals that had already reached the slaughter weight of ˜108 kg were slaughtered. For this reason, data was recorded on this day. The rations were based on wheat, wheat semolina bran, rapeseed extraction meal and soy extraction meal. Animal fat was also added in relevant amounts. The diets were isonitrogenous, i.e. the supply of crude protein and digestible amino acids was identical in all three treatment groups. [table] Feed conversion is the amount of feed consumed that leads to a weight gain of the animal of one kilogram. Energy utilization is the energy intake per kilogram of weight gain.

[3] = 600 g/t (0.06%) in 12.7 MJ ME/kg feed

## N=C(N)NCC(=O)O [guanidinoacetic acid, Guanidinoacetic acid]
[1]; addition to high energy feed
  Feed uptake: slightly lower
[1]; common feed
  Daily increase (weight gain): only a slight daily increase at the threshold of significance
  Feed conversion: slight improvement
[2]; [3]
  Daily feed intake, day 1-39: 2223 g
  Daily weight gain, day 1-39: 828 g
  Energy utilization, day 1-39: 34.2 MJ ME/kg gain
  Feed conversion, day 1-39: 2.69 kg feed/kg gain
  Live weight, day 39: 96.2 kg
[2]; 600 g/t in 12.7 MJ ME/kg feed
  Average slaughter weight: 107.3 kg
  Daily weight gains in the fattening phase: approximately 830 g/d
[2]; addition of 600 g/t, daily feed intake at level of positive control
  Energy deficit compensated: 0.2 MJ ME
[2]; fattening phase, vs 12.8 MJ ME negative control
  Improvement of feed conversion ratio compared to the negative control: 23 points
[2]; fattening phase, vs 13.0 MJ ME positive control
  Improvement of feed conversion ratio compared to the positive control: 6 points
[2]; fattening phase, vs negative control
  Less energy required per kg gain vs negative control: 4.3 MJ ME
[2]; fattening phase, vs positive control
  Less energy required per kg gain vs positive control: 2.1 MJ ME
[2]; until slaughter, 600 g/t in 12.7 MJ ME/kg feed
  Average number of fattening days (from the start of the fattening phase): 52
[2]; vs positive control
  Energy utilization improvement: approximately 5.8%
  Feed conversion improvement: approximately 2.2%
